Laboratory results: PMC6588608 (Communications Biology, 2019)
Where a chain is given by its changes, count along the chain named. Where two headings read alike, the source gives them in different places. Each block holds one compound with its values, some of them ahead of it.

What was measured:
[1] = molecular target: ETB receptor; parameters: method as in PMID 8587424; conditions: read-out: IC50 as ETB-selective antagonist; cited from earlier work
[2] = system: cold injury-mediated brain edema; parameters: method as in PMID 25000290, PMID 26174228; conditions: animal model; intracerebroventricular administration; cited from earlier work
[3] = molecular target: T1, ETB-WT (Homo sapiens, UniProt P24530); assay: TGFα shedding assay, inverse agonist activity (4 h incubation); conditions: for Emax: read-out: Emax ± SEM
T1 sequence (P24530 27-442): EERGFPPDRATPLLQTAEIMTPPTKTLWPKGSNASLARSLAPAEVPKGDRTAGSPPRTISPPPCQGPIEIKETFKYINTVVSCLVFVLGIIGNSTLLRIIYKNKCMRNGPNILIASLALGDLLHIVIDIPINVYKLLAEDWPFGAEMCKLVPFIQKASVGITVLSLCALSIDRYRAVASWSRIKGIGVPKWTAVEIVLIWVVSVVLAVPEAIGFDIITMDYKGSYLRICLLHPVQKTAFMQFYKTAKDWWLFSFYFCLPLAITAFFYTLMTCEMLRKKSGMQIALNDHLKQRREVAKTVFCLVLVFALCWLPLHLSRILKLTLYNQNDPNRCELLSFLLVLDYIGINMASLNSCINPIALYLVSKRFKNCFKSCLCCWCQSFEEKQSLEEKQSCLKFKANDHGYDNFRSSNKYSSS
Method: (§1) The TGFα shedding assay, which measures the activation of Gq/11 and G12/13 signaling[24], was performed as described previously[22]. Briefly, a plasmid encoding an ETB construct with an internal FLAG epitope tag or an ETA construct was transfected, together with a plasmid encoding alkaline phosphatase (AP)-tagged TGFα (AP-TGFα), into HEK293A cells by using a polyethylenimine (PEI) transfection reagent (1 µg ETR plasmid, 2.5 µg AP-TGFα plasmid, and 25 µl of 1 mg per ml PEI solution per 10-cm culture dish). […] The AP-TGFα release signals were fitted to a four-parameter sigmoidal concentration-response curve, using the Prism 7 software (GraphPad Prism), and the pEC50 (equal to −log10 EC50) and Emax values were obtained.

[4] = molecular target: T2, ETB-L192^3.43Q (constitutively active ETB receptor) (Homo sapiens, UniProt P24530, L192Q); assay: as above; conditions: for Emax: read-out: Emax ± SEM
T2 sequence (P24530 27-442 L192Q): T1 sequence (P24530 27-442) with L166Q
Method: as §1
(§2) To measure the constitutive activity in a plasmid volume-dependent manner, HEK293 cells were seeded in a 96-well plate at a concentration of 4 × 10^5 cells per ml in Opti-MEM I Reduced Serum Media (Thermo Fisher Scientific), in a volume of 80 μl per well. […] After adding the AP reaction solution, the absorbances of the cells and the CM plates were measured at 20 min intervals. The AP-TGFα release signals were calculated as described above, and the signal in the mock-transfected conditions was set at the baseline.

[5] = molecular target: T3, ETA (WT) (Homo sapiens, UniProt P25101); assay: as above
T3 sequence (P25101 21-427): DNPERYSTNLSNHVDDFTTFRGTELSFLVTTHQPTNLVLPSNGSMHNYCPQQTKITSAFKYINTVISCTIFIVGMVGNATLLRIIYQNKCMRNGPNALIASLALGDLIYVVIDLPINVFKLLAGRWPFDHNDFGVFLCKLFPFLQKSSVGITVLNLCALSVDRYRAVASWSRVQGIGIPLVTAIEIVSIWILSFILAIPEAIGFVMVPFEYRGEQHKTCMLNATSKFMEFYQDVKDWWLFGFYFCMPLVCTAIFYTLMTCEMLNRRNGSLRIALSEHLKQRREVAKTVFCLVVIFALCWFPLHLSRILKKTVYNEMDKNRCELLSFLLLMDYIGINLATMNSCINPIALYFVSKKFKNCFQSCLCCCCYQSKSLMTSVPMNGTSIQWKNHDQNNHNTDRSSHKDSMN
Method: as §1

[6] = molecular target: T4, ETA (L3.43Q) (constitutively active ETA receptor) (Homo sapiens, UniProt P25101, L176Q); assay: as above; conditions: for change of the basal activity: ETA-L^3.43Q, Supplementary Fig. 6b, c
T4 sequence (P25101 21-427 L176Q): T3 sequence (P25101 21-427) with L156Q
Method: as §1, §2

[7] = molecular target: T5, ETA receptor (wild type) (Homo sapiens, UniProt P25101); assay: TGFα shedding assay, antagonist activity against ET-1 (0.5 nM)-induced AP-TGFα release
T5 sequence (P25101 21-427): T3 sequence (P25101 21-427)
Method: as §1

[8] = molecular target: T6, constitutively active ETA receptor (ETA-L3.43Q) (Homo sapiens, UniProt P25101, L176Q); assay: as above
T6 sequence (P25101 21-427 L176Q): T3 sequence (P25101 21-427) with L156Q

[9] = molecular target: T7, ETB receptor (wild type) (Homo sapiens, UniProt P24530); assay: as above; type: cell-based; conditions: Supplementary Fig. 5d, ETB (WT)
T7 construct: expressed in transfected cells; host or cells: HEK293A
T7 sequence (P24530 27-442): T1 sequence (P24530 27-442)
Method: The TGFα shedding assay, which measures the activation of Gq/11 and G12/13 signaling, was performed as described previously. Briefly, a plasmid encoding an ETB construct with an internal FLAG epitope tag or an ETA construct was transfected, together with a plasmid encoding alkaline phosphatase (AP)-tagged TGFα (AP-TGFα), into HEK293A cells by using a polyethylenimine (PEI) transfection reagent (1 µg ETR plasmid, 2.5 µg AP-TGFα plasmid, and 25 µl of 1 mg per ml PEI solution per 10-cm culture dish). […] The AP-TGFα release signals were fitted to a four-parameter sigmoidal concentration-response curve, using the Prism 7 software (GraphPad Prism), and the pEC50 (equal to −log10 EC50) and Emax values were obtained.

[10] = molecular target: T8, constitutively active ETB receptor (ETB-L3.43Q) (Homo sapiens, UniProt P24530, L192Q); assay: as above
T8 sequence (P24530 27-442 L192Q): T1 sequence (P24530 27-442) with L166Q
Method: as §1, §2

- Emax [3]: < 2%
- Emax [4]: -27 ± 1.1%
- Emax [5]: < 2%
- Emax [6]: < 2%
- change of the basal activity [6]: did not change the basal activity
- IC50 ([7]; IC50 for the ETA receptor, text on Fig. 1a): > 3000 nM
- IC50 ([7]; pIC50 ± SEM ETA, Fig. 1a, HEK293 cells): < 3160 nM
- IC50 [8]: > 3000 nM
SMILES: Cc1cc(C)cc(C(=O)N(C)C(Cc2ccc(-c3ccccc3)cc2)C(=O)NC(Cc2c[nH]c3ccccc23)C(=O)O)c1 (centres unmarked) [IRL2500]
- IC50 [1]: 1.2 nM
- effect on cold injury-mediated brain edema and disruption of the blood–brain barrier [2]: attenuated the cold injury-mediated brain edema and disruption of the blood–brain barrier
- change of the receptor activation level (ligand-induced AP-TGFα release) ([3]; wild-type ETB, 4 h-incubation, Fig. 4d): did not change the receptor activation level

- pIC50 ± SEM [9]: 8.06 ± 0.04
- IC50 ([9]; read-out: IC50): 8.7 nM
- Emax ± SEM ([3]; Table 3, ETB-WT, AP-TGFα release, spontaneous release set at baseline, 4 h): <2%
- pEC50 (mean ± SEM) ([4]; Table 3, ETB-L192^3.43Q, 4 h incubation): 9.21 ± 0.04
- EC50 ([4]; Table 3, ETB-L192^3.43Q, 4 h incubation, reduction of basal activity for inverse agonists): 0.61 nM
- Emax ± SEM ([4]; Table 3, ETB-L192^3.43Q, AP-TGFα release, spontaneous release set at baseline, 4 h): −31.5 ± 2.0%
- Emax ([5]; Supplementary Fig. 6c, ETA (WT), AP-TGFα release, baseline = no compound, 4 h): < 2%
- Emax ([6]; Supplementary Fig. 6c, ETA (L3.43Q), AP-TGFα release, baseline = no compound, 4 h): < 2%
- IC50 ([7]; Supplementary Fig. 5d, ETA (WT)): > 3000 nM
- IC50 ([10]; Supplementary Fig. 5d): 4.2 nM
- pIC50 ± SEM ([10]; Supplementary Fig. 5d): 8.37 ± 0.06
- IC50 ([8]; Supplementary Fig. 5d, ETA (L3.43Q), ET-1 0.5 nM): > 3000 nM
SMILES: COc1ccccc1Oc1c(NS(=O)(=O)c2ccc(C(C)(C)C)cc2)nc(-c2ncccn2)nc1OCCC(=O)Nc1c(C)cccc1C [K-8794]

- Emax [5]: < 2%
- Emax [6]: < 2%
- change of the basal activity [6]: did not change the basal activity
SMILES: COc1ccccc1Oc1c(NS(=O)(=O)c2ccc(C(C)(C)C)cc2)nc(-c2ncccn2)nc1OCCO [Bosentan]

- IC50 ([9]; read-out: IC50): 110 nM
- IC50 ([9]; read-out: pIC50 ± SEM (converted)): 107 nM
- Emax [3]: < 2%
- EC50 ([4]; EC50, Table 3, ETB-L192^3.43Q, 4 h incubation, reduction of basal activity for inverse agonists): 0.96 nM
- EC50 ([4]; pEC50 (mean ± SEM), Table 3, ETB-L192^3.43Q, 4 h incubation): 0.955 nM
- Emax [4]: -18.5 ± 0.7%
- Emax [5]: < 2%
- Emax [6]: < 2%
- IC50 ([7]; IC50, Supplementary Fig. 5d, ETA (WT)): > 10000 nM
- IC50 ([10]; IC50, Supplementary Fig. 5d): 75 nM
- IC50 ([10]; pIC50 ± SEM, Supplementary Fig. 5d): 74.1 nM
- IC50 [8]: > 10000 nM
SMILES: CCCC[C@@H](NC(=O)[C@@H](Cc1cn(C(=O)OC)c2ccccc12)NC(=O)[C@H](CC(C)(C)C)NC(=O)N1[C@H](C)CCC[C@@H]1C)C(=O)O [BQ-788]
